From patent US20170002313A1, “COMPOSITIONS AND METHODS OF OBTAINING AND USING ENDODERM AND HEPATOCYTE CELLS” (Genentech Inc., priority 2012, published 2017)
Each block holds one molecule with its values, some of them ahead of it.

How the values were obtained:
[1] = target: mTOR (Homo sapiens, UniProt P42345); test: In vitro kinase profile, PI3K alpha_MTOR score; format: biochemical
Description: (§1) The effect of each compound on the PI3K/AKT/MTOR pathway was evaluated in two ways: via a kinase profile (FIG. 23) and via phospho imaging assays (i.e., immunofluorescence assays using antibodies specific for the phosphorylated form of mTOR or AKT). In vitro kinase profiling provided percent inhibition for numerous targets within the PI3K cell signaling pathway, and cell-based imaging assays were performed to directly visualize the effect of each compound on phosphorylated Akt and phosphorylated mTOR in the cell system used for differentiation.
(§2) In column 2 of Table 6, the PI3K alpha_MTOR score reflects the ability of a compound to inhibit the phosphorylation of PI3K alpha and mTOR, where + indicates minimal inhibition, and +++ indicates maximal inhibition. In column 3 of Table 6, the score indicates the ratio of phosphorylated mTOR (as measured by fluorescence intensity) in cells treated with a compound and the phosphorylated mTOR (as measured by fluorescence intensity) in cells that were not treated with the compound. In column 4 of Table 6, the score indicates the ratio of phosphorylated AKT (as measured by fluorescence intensity) in cells treated with a compound and the phosphorylated AKT (as measured by fluorescence intensity) in cells that were not treated with the compound. A reported effect of AKT inhibitors is an increase in phosphorylated AKT.

[2] = system: human embryonic stem cells (hESC); test: Dose response with Activin A for optimal concentration (SOX17, cell death); format: cell-based
Description: To facilitate extended characterization, it was necessary to determine the optimal concentration of each of the compounds for use subsequent experiments. The optimal concentration of each compound was determined based on two parameters: highest efficiency of endoderm differentiation and low toxicity. Each compound was tested with Activin A in a dose response manner. The concentration that gave the highest % SOX17 expressing cells at Day 3 without causing more than 30% cell death compared to control was determined for each compound. The yield of differentiation went from 4% to 81% SOX17+ cells at day 3.

[3] = system: hESC-derived cells; test: xCELLigence proliferation and viability time course; format: cell-based, human; details: 12 days, no medium change; Activin A + 750 nM Compound A, or Activin A + Wnt3a + 5 μM LY294002
Description: The hESC-derived cells grown under each condition were assayed for their proliferation and viability once a day for 12 days with no medium change using Roche's xCELLigence System according to standard protocol.
xCELLigence measured proliferation and viability as a function of impedance signal. High impedance signals indicated cell attachment to the surface of the culture dish, which is associated with increased proliferation. In contrast low impedance signals indicated cells' detachment from the surface of the culture dish, which is associated with cell death. […] The experiments whose results are depicted in FIG. 8 were performed in duplicate. Accordingly, there are two curves for each condition.

[4] = system: human embryonic stem cells (hESC); test: Endoderm differentiation of hESC with small-molecule inhibitors, flow cytometry of endoderm markers; format: cell-based
Text: A variety of cell-type specific markers were used to monitor the differentiation of stem cells into endoderm cells in the flow cytometry, fluorescence imaging, and immunoassay experiments described below. To detect endoderm conversion, hESC-derived cell samples were stained for the expression of SOX17, FoxA2, and CXCR4 proteins. SOX17, FoxA2, and CXCR4 are proteins that are expressed by endoderm cells but not by stem cells. To detect stem cells, cell samples were stained for the expression of OCT4, a protein expressed by stem cells but not by endoderm cells.
Undifferentiated human embryonic stem cells (hES) were maintained at a density of 40,000 cells/cm^2 on qualified matrigel (BD, #354277) in TesR™2 medium ([…]™ Technologies #05860). Cultures were manually passaged twice a week. To prepare for endoderm differentiation, hESC cells were passaged into TesR™2 medium overnight. The following day, the TesR™2 medium was replaced with basal medium (DMEM/F12+Glutamax (Invitrogen, #10565) supplemented with B27 (Invitrogen, #17504-044)). No human embryos were destroyed in the process of obtaining stem cells for these methods. Furthermore, the plurality of stem cells is not obtained by the prior destruction of human embryos.
Unless otherwise noted, basal medium was supplemented with […] human Activin A (Peprotech, #120-14). When indicated, basal medium was also supplemented with an effective amount of, e.g., a growth factor such as […] human Wnt3a (R&D, #5036-WN-010), an isoform-specific P13K inhibitor or an mTOR inhibitor. […]
To prepare the cells for flow cytometry, hESC-derived cells grown under endoderm differentiation conditions were dissociated using Accutase (Innovative Cell technologies, #AT-104). Briefly, the cells were washed once in PBS, incubated with Accutase for 10 minutes at room temperature, pelleted, and washed in cold PBS. The Accutase-dissociated hESC-derived cell samples were stained with anti-CXC4 antibody, anti-SOX17 antibody, or anti-FoxA2 antibody. Additional cell samples were stained with isotype control antibodies (e.g., IgG1 or IgG2).
The cells that were to be stained with anti-CXCR4 antibody were washed once with cold DPBS and then directly stained with mouse anti-human CD184 (CXCR4)-IgG2-PE (BD, #555974) for one hour at 4° C. The cells that were to be stained with anti-SOX17 antibody or anti-FoxA2 antibody were first fixed for 25 minutes at 4° C. in fixation buffer (BD, #554655) and permeabilized for 30 minutes on ice in Perm Buffer III (BD, #554656). Anti-SOX17 staining was performed using a mouse anti-SOX17 IgG1-PE antibody (BD, #561591) at room temperature for 30 minutes. Anti-FoxA2 staining was performed using a mouse anti-human FoxA2 IgG1 (BD, #561589) under the same conditions. A control sample of cells were fixed as described above and stained with either an anti-IgG1-PE antibody (BD, #554680) at room temperature for 30 minutes or an anti-IgG2-PE antibody (BD, #55574) for one hour at 4° C.
The antibody-stained hESC-derived cells were then analyzed via flow cytometry using a BD LSRFortessa™ cell analyzer. […] Approximately 1×10^6 cells were analyzed per sample.

[5] = system: human embryonic stem cells (hESC); test: AlphaLISA of SOX17 and OCT4 in hESC-derived cells; format: cell-based
Description: To detect OCT4, the cells were washed three times in PBS and lysed with 50 ul AlphaLISA Lysis Buffer (Perkin Elmer, #AL003C). The lysis buffer was added to each cell sample and mixed with the cells five times. The cell samples were then incubated in a plate shaker at room temperature for 15 minutes. 5 μl of the lysate from each sample was then transferred to a 384 well OptiPlate (Perkin Elmer, #6005629). 5 μl of 10 ug/ml anti-rabbit acceptor bead (Perkin Elmer, #AL104M) and […] of 0.2 nM of rabbit anti-OCT4 antibody (Cell Signaling, #2890) was added to each well and incubated for 2 hours at room temperature. Following the incubation, 5 μl of 0.5 nM mouse anti-OCT4 antibody (BD, #611203) and […] of 0.5 nM biotinylated goat anti-mouse antibody (Invitrogen, #B2763) were added to each well and incubated at room temperature for 2 hours. Following the incubation, […] of streptavidin donor beads (Perkin Elmer, #6760002B) were added to each well and incubated for 30 minutes. The OptiPlates were then analyzed using an Envision Multilabel Plate Reader (Perkin Elmer, #2104-0010). All beads and antibodies were diluted as necessary in IAB Buffer (Perkin Elmer, #AL000C)+50 mM NaCl. Four replicate assays were performed.
To detect SOX17, the cells were washed three times in PBS and lysed with 50 ul Roche Complete Lysis Buffer (Roche, #04719956001). The lysis buffer was added to each cell sample and mixed with the cells five times. The cell samples were then incubated in a plate shaker at room temperature for 15 minutes. 5 μl of the lysate from each sample was then transferred to a 384 well OptiPlate (Perkin Elmer, #6005629). 5 μl of 10 ug/ml anti-rabbit acceptor bead (Perkin Elmer, #AL104M) and […] of 1 nM of rabbit anti-SOX17 antibody (Sigma, #AV33271) was added to each well and incubated for 2 hours at room temperature. Following the incubation, 5 μl of 0.5 nM mouse anti-SOX antibody (Sigma, #SAB3300093) and […] of 0.5 nM biotinylated goat anti-mouse antibody (Invitrogen, #B2763) were added to each well and incubated at room temperature for 2 hours. Following the incubation, […] of streptavidin donor beads (Perkin Elmer, #6760002B) were added to each well and incubated for 30 minutes. The OptiPlates were then analyzed using an Envision Multilabel Plate Reader (Perkin Elmer, #2104-0010). All beads and antibodies were diluted as necessary in IAB Buffer (Perkin Elmer, #AL000C) Four replicate assays were performed.
After a 3-day treatment, cells were harvested and stained with anti-SOX17 antibody as described above in preparation for AlphaLISA analysis.

[6] = system: hESC-derived endoderm cells; test: CellTiter-Glo Luminescent Cell Viability Assay; format: cell-based, human; details: Activin A + 100 nM to 1.5 μM Compound A, 7 days
Text: In this assay, metabolically active cells in each sample tested were quantified as a function of ATP levels produced by the sample.

[7] = target: PI3K alpha (Homo sapiens, UniProt P42336); test: In vitro kinase profile, PI3K alpha_MTOR score; format: biochemical
Sequence of PI3K alpha (P42336 whole entry, species assumed): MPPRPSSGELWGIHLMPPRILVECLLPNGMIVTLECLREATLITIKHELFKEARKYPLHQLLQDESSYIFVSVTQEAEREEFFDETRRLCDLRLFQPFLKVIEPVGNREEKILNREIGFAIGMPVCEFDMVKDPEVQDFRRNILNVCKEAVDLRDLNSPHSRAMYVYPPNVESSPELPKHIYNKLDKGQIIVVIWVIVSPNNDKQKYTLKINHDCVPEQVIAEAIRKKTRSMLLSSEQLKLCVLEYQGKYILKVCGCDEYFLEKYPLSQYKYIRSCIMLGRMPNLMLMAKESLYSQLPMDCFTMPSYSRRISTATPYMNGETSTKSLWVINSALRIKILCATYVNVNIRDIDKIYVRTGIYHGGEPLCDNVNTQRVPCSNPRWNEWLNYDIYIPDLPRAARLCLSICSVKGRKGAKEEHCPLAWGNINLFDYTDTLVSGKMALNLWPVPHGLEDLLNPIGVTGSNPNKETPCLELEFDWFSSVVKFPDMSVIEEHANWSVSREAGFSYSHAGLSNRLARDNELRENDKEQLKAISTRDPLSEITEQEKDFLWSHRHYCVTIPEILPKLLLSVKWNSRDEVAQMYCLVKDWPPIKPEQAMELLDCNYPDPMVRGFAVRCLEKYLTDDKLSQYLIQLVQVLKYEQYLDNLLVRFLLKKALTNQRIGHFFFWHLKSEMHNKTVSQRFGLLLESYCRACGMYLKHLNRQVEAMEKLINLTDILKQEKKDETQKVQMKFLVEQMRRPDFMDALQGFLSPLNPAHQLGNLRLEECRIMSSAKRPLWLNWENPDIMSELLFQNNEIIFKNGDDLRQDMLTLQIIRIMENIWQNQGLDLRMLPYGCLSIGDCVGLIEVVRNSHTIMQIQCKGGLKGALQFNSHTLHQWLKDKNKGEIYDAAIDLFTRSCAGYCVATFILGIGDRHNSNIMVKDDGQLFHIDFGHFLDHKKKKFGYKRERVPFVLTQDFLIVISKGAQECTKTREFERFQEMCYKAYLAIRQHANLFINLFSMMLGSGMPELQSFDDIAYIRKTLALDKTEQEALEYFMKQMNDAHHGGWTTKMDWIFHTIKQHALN
Sequence of PI3K alpha (P27986 whole entry partner, species assumed): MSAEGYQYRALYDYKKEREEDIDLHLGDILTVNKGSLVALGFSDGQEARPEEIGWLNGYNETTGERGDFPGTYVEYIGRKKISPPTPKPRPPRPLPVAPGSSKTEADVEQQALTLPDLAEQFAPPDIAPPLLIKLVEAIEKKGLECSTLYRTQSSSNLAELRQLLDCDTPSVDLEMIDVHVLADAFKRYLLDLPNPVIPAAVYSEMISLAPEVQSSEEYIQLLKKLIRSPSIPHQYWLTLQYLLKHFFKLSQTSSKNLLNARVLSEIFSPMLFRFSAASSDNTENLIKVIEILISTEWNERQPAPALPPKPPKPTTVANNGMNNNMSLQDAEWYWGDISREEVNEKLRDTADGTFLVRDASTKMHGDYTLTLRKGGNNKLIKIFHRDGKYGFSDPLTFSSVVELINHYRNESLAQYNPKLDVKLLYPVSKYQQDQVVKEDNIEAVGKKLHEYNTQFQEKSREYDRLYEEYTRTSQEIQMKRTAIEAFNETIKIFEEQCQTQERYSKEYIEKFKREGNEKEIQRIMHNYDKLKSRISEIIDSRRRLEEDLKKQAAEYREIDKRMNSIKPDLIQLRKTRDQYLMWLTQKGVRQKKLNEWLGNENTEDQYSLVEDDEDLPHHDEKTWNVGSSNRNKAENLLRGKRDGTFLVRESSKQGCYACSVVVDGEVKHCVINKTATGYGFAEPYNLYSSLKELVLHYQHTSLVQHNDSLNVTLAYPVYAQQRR
Description: as §1, §2

[8] = system: phosphorylated mTOR; test: Phospho imaging assay (immunofluorescence); format: cell-based, human
Description: as §1, §2

[9] = system: Akt; test: In vitro kinase profile; format: biochemical
Description: as §1

[10] = system: phosphorylated AKT; test: Phospho imaging assay (immunofluorescence); format: cell-based, human
Description: as §1, §2

[11] = system: hESC-derived endoderm cells; test: Hepatocyte differentiation of endoderm cells, flow cytometry; format: cell-based, human; details: hepatoblast medium in the absence of FGF4 and BMP2
Description: After 10-day treatment, the endoderm-derived cells were harvested using TrypLE. Briefly, the cells were washed once in PBS, incubated with TrypLE for 5 minutes at 37° C. The incubated cells were then diluted 10-fold with PBS, pelleted, and prepared for further analysis.
Prior to flow cytometry analysis, the Accutase-dissociated endoderm-derived cell samples were stained with an anti-AFP primary antibody followed by a secondary antibody.
The harvested endoderm-derived cells were washed with cold DPBS. […] The cells were washed three more times in permeabilization/wash buffer prior to flow cytometry analysis.
HepG2 cells, which were derived from a well-differentiated hepatocellular carcinoma, were also stained as a positive control. The cells were analyzed via flow cytometry as described above. Approximately 1.5×10^6 cells were analyzed per sample.
Endoderm cells were treated with different combinations of growth factors and tested for their capability to differentiate into hepatocytes. hESC were differentiated into endoderm cells as described above. […] After 10 days of treatment, the endoderm-derived cells were prepared for flow cytometry and imaging analysis as described above.
An additional control sample was prepared in which endoderm cells obtained by culture with Activin A alone were cultured in hepatoblast medium in the absence of any additional growth factors. […]

[12] = time course, Activin A + 750 nM Compound A, no Wnt3a, day 5
[13] = dose response of Compound A with Activin A
[14] = Activin A + 750 nM inhibitor, no Wnt3a, 3-day treatment

Molecule: CO[C@@H]1[C@H](N(C)C(=O)c2ccccc2)C[C@H]2O[C@]1(C)n1c3ccccc3c3c4c(c5c6ccccc6n2c5c31)C(=O)NC4 [PKC412]
- reduction of phosphorylation of mTOR (FIG. 23) [1]: potent reduction of phosphorylation
- toxicity [2]: may be toxic

Molecule: CS(=O)(=O)N1CCN(Cc2cc3nc(-c4cccc5[nH]ncc45)nc(N4CCOCC4)c3s2)CC1 [Compound A, 4-[2-(1H-indazol-4-yl)-6-[(4-methylsulfonylpiperazin-1-yl)methyl]thieno[3,2-d]pyrimidin-4-yl]morpholine]
- viability and proliferation (impedance signal) [3]: remain viable and proliferative past day 4
- % of hESC-derived cells expressing SOX17 ([4]; Activin A + Wnt3a + 500 nM inhibitor, 3-day treatment): 93.5-93.9%
- % of hESC-derived cells expressing SOX17 ([4]; dose response, Activin A + 750 nM Compound A, no Wnt3a, 3-day treatment): 84%
- % of hESC-derived cells expressing SOX17 ([4]; isoform-specific PI3K inhibitor + Activin A alone, 3-day treatment): about 77.35%
- % of hESC-derived cells expressing CXCR4 [4, 12]: 82%
- % of hESC-derived cells expressing FoxA2 [4, 12]: 87%
- % of hESC-derived cells expressing SOX17 [4, 12]: 91%
- OCT4 expression (AlphaLISA) [5, 13]: decreases
- SOX17 expression (AlphaLISA) [5, 13]: increases with increasing concentrations of Compound A up to 750 nM
- viability (ATP levels) [6]: greater viability at 7 days

- PI3K alpha_MTOR score: PI3K alpha [7]: +
- PI3K alpha_MTOR score: MTOR [1]: +++
Molecule: COc1ccc(-c2ccc3c(N4CCOCC4)nc(N4C[C@@H](C)O[C@@H](C)C4)nc3n2)cc1CO [KU0063794]
- endoderm conversion (SOX17, FoxA2, CXCR4 flow cytometry) [4, 14]: higher degree of endoderm conversion
- endoderm conversion (SOX17 AlphaLISA) [5, 14]: better endoderm conversion than cells cultured in Activin A alone or cells cultured with an Akt inhibitor
- Avg(Avg (Ph MTOR_60m_%C # Spots)) ([8]; 60 min, treated versus untreated cells, fluorescence intensity): 25.83 %C

Molecule: CCNC(=O)Nc1ccc2ncc(Nc3ccc(C)cc3)nc2n1 [Compound D1066]
- reduction of phosphorylation of mTOR (FIG. 23) [1]: did not show reduction of phosphorylation of mTOR or Akt
- reduction of phosphorylation of Akt (FIG. 23) [9]: did not show reduction of phosphorylation of mTOR or Akt
- effect on mTOR phosphorylation in cell-based imaging assays [8]: did not exhibit any effects on Akt or mTOR phosphorylation
- effect on Akt phosphorylation in cell-based imaging assays [10]: did not exhibit any effects on Akt or mTOR phosphorylation

Molecule: COc1ccc(COc2cc3oc(=O)c4cc(C(C)O)ccc4c3cc2OC)cc1 (stereo not drawn) [Palomid 529]
- reduction of phosphorylation of mTOR (FIG. 23) [1]: did not show reduction of phosphorylation of mTOR or Akt
- reduction of phosphorylation of Akt (FIG. 23) [9]: did not show reduction of phosphorylation of mTOR or Akt
- effect on mTOR phosphorylation in cell-based imaging assays [8]: did not exhibit any effects on Akt or mTOR phosphorylation
- effect on Akt phosphorylation in cell-based imaging assays [10]: did not exhibit any effects on Akt or mTOR phosphorylation

B1: Activin A: human Activin A (Peprotech), member of the TGF beta family (protein, UniProt P08476 311-426, looked up)
Inhibin beta A chain: GLECDGKVNICCKKQFFVSFKDIGWNDWIIAPSGYHANYCEGECPSHIAGTSGSSLSFHSTVINHYRMRGHSPFANLKSCCVPTKLRPMSMLYYDDGQNIIKKDIQNMIVEECGCS
modifications: Inhibin beta A chain homodimer
- % of hESC-derived cells expressing SOX17 ([4]; Activin A alone, 3-day treatment): 20%
- % of endoderm-derived cells expressing AFP [11]: 7.65%
